In patent publication US9212151B2, “Heterocyclic compounds useful for kinase inhibition” (Amitech Therapeutic Solutions, Inc., priority 2010, dated 2015):

Assay: MTT cell viability assay, compounds at 5, 1 and 0.2 μM, 48 hours
Format: cell-based
Conditions: human, A549 tumor cells
Summary of the method: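 A549 cells were seeded at 2500/well in DMEM + 10% FBS, grown overnight, then exposed to compound for 48 h. Viability was read by MTT (5 mg/ml, 4 h), with formazan dissolved in DMSO and absorbance measured at 560/570 nm to give survival rate.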

Row | SMILES | viability at 48 h, 0.2 µM [%] | viability at 48 h, 1 µM [%] | viability at 48 h, 5 µM [%]
1 | CC(=O)NCCSc1nc(N)cc(Oc2ccc(-c3nnc(Nc4cccc(C(F)(F)F)c4)[nH]3)cc2)n1 [Compound 114] | > 70 | > 70 | > 70
2 | Nc1cc(Oc2ccc(-c3nnc(Nc4cccc(C(F)(F)F)c4)[nH]3)cc2)nc(SCCO)n1 [Compound 115] | > 70 | > 70 | > 70
3 | Nc1cc(Oc2ccc(-c3nnc(Nc4cccc(C(F)(F)F)c4)[nH]3)cc2)nc(SCC(=O)O)n1 [Compound 116] | > 70 | > 70 | > 70
4 | CNC(=O)CSc1nc(N)cc(Oc2ccc(-c3nnc(Nc4cccc(C(F)(F)F)c4)[nH]3)cc2)n1 [Compound 117] | > 70 | > 70 | > 70
5 | CNc1cc(Oc2ccc(-c3nnc(Nc4cccc(C(F)(F)F)c4)[nH]3)cc2)nc(SC)n1 [Compound 118] | > 70 | > 70 | > 70
6 | CSc1nc(N)cc(Sc2ccc(-c3nnc(Nc4cccc(C(F)(F)F)c4)[nH]3)cc2)n1 [Compound 119] | > 70 | < 50 | < 50
7 | CSc1nc(N)cc(Oc2ccc(-c3nnc(Nc4cc(C(F)(F)F)cc(C(F)(F)F)c4)[nH]3)cc2)n1 [Compound 120] | > 70 | > 70 | > 70
8 | CSc1nc(N)cc(Oc2ccc(-c3nnc(Nc4cc(C)ccc4F)[nH]3)cc2)n1 [Compound 121] | > 70 | 50 to 70 | < 50
9 | CCc1cccc(Nc2nnc(-c3ccc(Oc4cc(N)nc(SC)n4)cc3)[nH]2)c1 [Compound 122] | > 70 | > 70 | < 50
10 | CSc1nc(N)cc(Oc2ccc(-c3nnc(Nc4cc(C)cc(C)c4)[nH]3)cc2)n1 [Compound 123] | < 50 | < 50 | < 50
11 | CSc1nc(N)cc(Oc2ccc(-c3nnc(Nc4ccc5c(c4)CCC5)[nH]3)cc2)n1 [Compound 124] | > 70 | > 70 | < 50
12 | CSc1nc(N)cc(Oc2ccc(-c3nnc(Nc4ccc(C)c(C)c4)[nH]3)cc2)n1 [Compound 125] | > 70 | > 70 | < 50
13 | CSc1nc(N)cc(Oc2ccc(-c3nnc(Nc4cccc(C)c4C)[nH]3)cc2)n1 [Compound 126] | < 50 | < 50 | < 50
14 | CSc1nc(N)cc(Oc2ccc(-c3nnc(Nc4ccc(C#N)cc4)[nH]3)cc2)n1 [Compound 127] | > 70 | > 70 | 50 to 70
15 | CSc1nc(N)cc(Oc2ccc(-c3nnc(Nc4cccc(C#N)c4)[nH]3)cc2)n1 [Compound 128] | > 70 | > 70 | > 70
16 | CSc1nc(N)cc(Oc2ccc(-c3nnc(Nc4cc(C(C)(C)C)on4)[nH]3)cc2)n1 [Compound 129] | > 70 | > 70 | > 70
17 | CSc1nc(N)cc(Oc2ccc(-c3nnc(Nc4cccc(CC#N)c4)[nH]3)cc2)n1 [Compound 130] | > 70 | > 70 | < 50
18 | CSc1nc(N)cc(Oc2ccc(-c3nnc(Nc4cccc(C(C)(C)C#N)c4)[nH]3)cc2)n1 [Compound 131] | > 70 | > 70 | < 50

Row | SMILES | viability at 48 h, 0.2 µM [%] | viability at 48 h, 1 µM [%] | viability at 48 h, 5 µM [%]
19 | CSc1nc(N)cc(Oc2ccc(-c3nnc(Nc4cc(C(C)(C)C)n[nH]4)[nH]3)cc2)n1 [Compound 132] | > 70 | > 70 | < 50
20 | CSc1nc(N)cc(Oc2ccc(-c3nnc(Nc4cccc(Cl)c4)[nH]3)cc2)n1 [Compound 133] | > 70 | < 50 | < 50
21 | CSc1nc(N)cc(Oc2ccc(-c3nnc(Nc4cccc(OC(C)C)c4)[nH]3)cc2)n1 [Compound 134] | > 70 | > 70 | < 50
22 | CSc1nc(N)cc(Oc2ccc(-c3nnc(Nc4cccc5c4CCCC5)[nH]3)cc2)n1 [Compound 135] | < 50 | < 50 | < 50
23 | CSc1nc(N)cc(Oc2ccc(-c3nnc(Nc4ccc5c(c4)-c4ccccc4C5)[nH]3)cc2)n1 [Compound 136] | > 70 | 50 to 70 | < 50
24 | CSc1nc(N)cc(Oc2ccc(-c3nnc(Nc4cccc(C(F)(F)F)c4F)[nH]3)cc2)n1 [Compound 137] | > 70 | < 50 | < 50
25 | COC(=O)c1cccc(Nc2nnc(-c3ccc(Oc4cc(N)nc(SC)n4)cc3)[nH]2)c1 [Compound 138] | > 70 | > 70 | < 50
26 | CSc1nc(N)cc(Oc2ccc(-c3nnc(Nc4cc(C(C)(C)C)nn4-c4cccc(C)c4)[nH]3)cc2)n1 [Compound 139] | > 70 | > 70 | > 70
27 | CSc1nc(N)cc(Oc2ccc(-c3nnc(Nc4ccccc4Cl)[nH]3)cc2)n1 [Compound 140] | > 70 | > 70 | 50 to 70
28 | CC(C)(C)Sc1cc(Oc2ccc(-c3nnc(Nc4cccc(C(F)(F)F)c4)[nH]3)cc2)nc(N)n1 [Compound 141] | > 70 | > 70 | < 50
29 | [2H]C([2H])([2H])Oc1cc(Oc2ccc(-c3nnc(Nc4cccc(C(F)(F)F)c4)[nH]3)cc2)nc(N)n1 [Compound 142] | > 70 | > 70 | > 70
30 | FC(F)(F)c1cccc(Nc2nnc(-c3ccc(OCc4ccncc4)cc3)[nH]2)c1 [Compound 143] | > 70 | > 70 | > 70
31 | CCCNc1cc(Oc2ccc(-c3nnc(Nc4cccc(C(F)(F)F)c4)[nH]3)cc2)nc(SC)n1 [Compound 144] | > 70 | > 70 | 50 to 70
32 | COCCCNc1cc(Oc2ccc(-c3nnc(Nc4cccc(C(F)(F)F)c4)[nH]3)cc2)nc(SC)n1 [Compound 145] | > 70 | > 70 | < 50
33 | FC(F)(F)c1cccc(Nc2nnc(-c3ccc(Oc4cncc5ccccc45)cc3)[nH]2)c1 [Compound 146] | > 70 | > 70 | < 50
34 | O=[N+]([O-])c1cc(F)cc(Oc2ccc(-c3nnc(Nc4cccc(C(F)(F)F)c4)[nH]3)cc2)c1 [Compound 147] | > 70 | > 70 | 50 to 70
35 | FC(F)(F)c1cccc(Nc2nnc(-c3ccc(Oc4ccnc5cc(C(F)(F)F)ccc45)cc3)[nH]2)c1 [Compound 148] | > 70 | > 70 | > 70
